From PMC12655637, “Design, Synthesis, and Mechanistic Study of Novel Ciprofloxacin/Thiazole Chalcone Hybrids as Potential Anticancer Agents” (Pharmaceuticals, 2025)

Tests used:
Assay in all cases: NCI-60 screening, one-dose (10 µM) and five-dose, SRB
CCRF-CEM = assay type: cell-based, human
K-562 = assay type: cell-based, human
EKVX = assay type: cell-based, human
HOP-92 = assay type: cell-based, human
NCI-H226 = assay type: cell-based, human
NCI-H522 = assay type: cell-based, human
COLO 205 = assay type: cell-based, human
HCC-2998 = assay type: cell-based, human
HCT-15 = assay type: cell-based, human
KM12 = assay type: cell-based, human; conditions: five-dose, KM12
SF-268 = assay type: cell-based, human
SF-295 = assay type: cell-based, human
SF-539 = assay type: cell-based, human; conditions: five-dose, SF-539
SNB-19 = assay type: cell-based
SNB-75 = assay type: cell-based, human
LOX IMVI = assay type: cell-based, human; conditions: Homo sapiens, five-dose
[1] = Homo sapiens, five-dose, read-out: LC50 (the source's name)
[2] = Homo sapiens, K562, five-dose, K-562
[3] = Homo sapiens, five-dose, HOP-92
[4] = Homo sapiens, five-dose, NCI-H226
[5] = Homo sapiens, five-dose, NCI-H522
[6] = Homo sapiens, five-dose, COLO 205
[7] = Homo sapiens, five-dose, HCC-2998
[8] = Homo sapiens, five-dose, HCT-15
[9] = Homo sapiens, five-dose, SF-268
[10] = Homo sapiens, five-dose, SF-295
[11] = Homo sapiens, five-dose, SNB-19
[12] = Homo sapiens, five-dose, SNB-75

Cc1nc(SCC(=O)N2CCN(c3cc4c(cc3F)c(=O)c(C(=O)O)cn4C3CC3)CC2)sc1C(=O)/C=C/c1cccc(F)c1 [Compound 4d, (E)-1-Cyclopropyl-6-fluoro-7-(4-(2-((5-(3-(3-fluorophenyl)acryloyl)-4-methylthiazol-2-yl)thio)acetyl)piperazin-1-yl)-4-oxo-1,4-dihydroquinoline-3-carboxylic Acid]
activity at 10 µM (CCRF-CEM; Homo sapiens, 10 μM, Leukemia, read-out: Growth percentage): 17.1% | GI50 (CCRF-CEM; Homo sapiens, five-dose): 2.88 µM | IC50 (CCRF-CEM; Homo sapiens, five-dose): 4.37 µM | CC50 (CCRF-CEM; [1]): > 100 µM | TGI (CCRF-CEM; five-dose): 4.3 µM | activity at 10 µM (K-562; Homo sapiens, K562, 10 μM, K-562, Leukemia, read-out: Growth percentage): 56.1% | GI50 (K-562; [2]): 1.58 µM | IC50 (K-562; [2]): 2.4 µM | CC50 (K-562; Homo sapiens, K562, five-dose, K-562, read-out: LC50 (the source's name)): 9.12 µM | TGI (K-562; five-dose, K-562): 8.7 µM | activity at 10 µM (EKVX; Homo sapiens, 10 μM, Non-Small-Cell Lung Cancer, read-out: Growth percentage): 70.2% | GI50 (EKVX; Homo sapiens, five-dose): 1.7 µM | IC50 (EKVX; Homo sapiens, five-dose): 5.9 µM | CC50 (EKVX; [1]): > 100 µM | TGI (EKVX; five-dose): 100.0 µM | activity at 10 µM (HOP-92; Homo sapiens, 10 μM, HOP-92, Non-Small-Cell Lung Cancer, read-out: Growth percentage): 91.9% | GI50 (HOP-92; [3]): > 100 µM | IC50 (HOP-92; [3]): > 100 µM | LC50 (concentration killing 50% of cells) (HOP-92; [3]): > 100 µM | TGI (HOP-92; five-dose, HOP-92): 100.0 µM | activity at 10 µM (NCI-H226; Homo sapiens, 10 μM, NCI-H226, Non-Small-Cell Lung Cancer, read-out: Growth percentage): 70.9% | GI50 (NCI-H226; [4]): > 100 µM | IC50 (NCI-H226; [4]): > 100 µM | LC50 (concentration killing 50% of cells) (NCI-H226; [4]): > 100 µM | TGI (NCI-H226; five-dose, NCI-H226): 100.0 µM | activity at 10 µM (NCI-H522; Homo sapiens, 10 μM, NCI-H522, Non-Small-Cell Lung Cancer, read-out: Growth percentage): 88.2% | GI50 (NCI-H522; [5]): > 100 µM | IC50 (NCI-H522; [5]): > 100 µM | LC50 (concentration killing 50% of cells) (NCI-H522; [5]): > 100 µM | TGI (NCI-H522; five-dose, NCI-H522): 100.0 µM | activity at 10 µM (COLO 205; Homo sapiens, 10 μM, COLO 205, Colon Cancer, read-out: Growth percentage): 102% | GI50 (COLO 205; [6]): 4.9 µM | IC50 (COLO 205; [6]): 9.3 µM | CC50 (COLO 205; Homo sapiens, five-dose, COLO 205, read-out: LC50 (the source's name)): > 100 µM | TGI (COLO 205; five-dose, COLO 205): 19.95 µM | activity at 10 µM (HCC-2998; Homo sapiens, 10 μM, HCC-2998, Colon Cancer, read-out: Growth percentage): -29% | GI50 (HCC-2998; [7]): 1.4 µM | IC50 (HCC-2998; [7]): 8.5 µM | CC50 (HCC-2998; Homo sapiens, five-dose, HCC-2998, read-out: LC50 (the source's name)): > 100 µM | TGI (HCC-2998; five-dose, HCC-2998): 0.42 µM | activity at 10 µM (HCT-15; Homo sapiens, 10 μM, HCT-15, Colon Cancer, read-out: Growth percentage): -41.7% | GI50 (HCT-15; [8]): 33.9 µM | IC50 (HCT-15; [8]): 53.7 µM | LC50 (50% lethal concentration) (HCT-15; [8]): > 100 µM | TGI (HCT-15; five-dose, HCT-15): 100.0 µM | GI50 (KM12; Homo sapiens): 0.52 µM | IC50 (KM12; Homo sapiens): 0.69 µM | LC50 (KM12; Homo sapiens): 6.92 µM | TGI (KM12): 97.7 µM | activity at 10 µM (SF-268; Homo sapiens, 10 μM, SF-268, CNS Cancer, read-out: Growth percentage): 25.7% | GI50 (SF-268; [9]): 27.5 µM | IC50 (SF-268; [9]): > 100 µM | CC50 (SF-268; Homo sapiens, five-dose, SF-268, read-out: LC50 (the source's name)): > 100 µM | TGI (SF-268; five-dose, SF-268): 100.0 µM | activity at 10 µM (SF-295; Homo sapiens, 10 μM, SF-295, CNS Cancer, read-out: Growth percentage): 93.1% | GI50 (SF-295; [10]): > 100 µM | IC50 (SF-295; [10]): > 100 µM | CC50 (SF-295; Homo sapiens, five-dose, SF-295, read-out: LC50 (the source's name)): > 100 µM | TGI (SF-295; five-dose, SF-295): 8.7 µM | GI50 (SF-539; Homo sapiens): 2 µM | IC50 (SF-539; Homo sapiens): 4.1 µM | CC50 (SF-539; Homo sapiens, read-out: LC50 (the source's name)): > 100 µM | TGI (SF-539): 100.0 µM | activity at 10 µM (SNB-19; Homo sapiens, 10 μM, SNB-19, CNS Cancer, read-out: Growth percentage): 12.2% | GI50 (SNB-19; [11]): 6.9 µM | IC50 (SNB-19; [11]): 28.2 µM | CC50 (SNB-19; Homo sapiens, five-dose, SNB-19, read-out: LC50 (the source's name)): > 100 µM | TGI (SNB-19; five-dose, SNB-19): 100.0 µM | activity at 10 µM (SNB-75; Homo sapiens, 10 μM, SNB-75, CNS Cancer, read-out: Growth percentage): 49.1% | GI50 (SNB-75; [12]): > 100 µM | IC50 (SNB-75; [12]): > 100 µM | CC50 (SNB-75; Homo sapiens, five-dose, SNB-75, read-out: LC50 (the source's name)): > 100 µM | TGI (SNB-75; five-dose, SNB-75): 100.0 µM | GI50 (LOX IMVI): 2.8 µM
